Test results as given in patent US20230365592A1 (Agios Pharmaceuticals, Inc., priority 2022, published 2023).

target: T1, human PAH with the R408W mutation (Homo sapiens, UniProt P00439, R408W); experiment: Cell Based Phenylalanine Flux Assay; settings: A375 cells expressing R408W PAH; 24 hrs with compound, then 20 µM sepiapterin and 800 µM 13C9,15N-Phenylalanine for 4 hours; 13C-Tyrosine by LC-MS; average where tested multiple times; read-out: AC50;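 also: after compound treatment, cells received sepiapterin plus isotope-labelled Phenylalanine for 4 hours, then labelled Tyrosine in the medium was quantified, 10-point 2-fold dilution series run in duplicate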
T1 construct: expressed in transfected cells
T1 sequence (P00439 1-452 R408W): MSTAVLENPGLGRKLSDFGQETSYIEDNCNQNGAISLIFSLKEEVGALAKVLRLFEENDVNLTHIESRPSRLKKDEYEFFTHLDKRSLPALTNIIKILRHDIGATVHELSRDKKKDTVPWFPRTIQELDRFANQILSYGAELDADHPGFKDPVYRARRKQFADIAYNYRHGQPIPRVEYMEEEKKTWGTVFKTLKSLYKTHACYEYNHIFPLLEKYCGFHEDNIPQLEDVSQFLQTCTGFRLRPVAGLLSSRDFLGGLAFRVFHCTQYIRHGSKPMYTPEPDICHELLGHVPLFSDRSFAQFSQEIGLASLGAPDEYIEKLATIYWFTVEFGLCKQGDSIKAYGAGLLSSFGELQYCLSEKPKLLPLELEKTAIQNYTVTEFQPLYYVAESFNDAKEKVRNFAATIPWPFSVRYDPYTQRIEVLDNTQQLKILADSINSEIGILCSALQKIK

Row | Compound | AC50 [µM]
1 | COc1cccn2nc(C3c4nc[nH]c4CCN3C(=O)c3nnc(-c4ccn(C)n4)o3)cc12 (single isomer, unassigned) | > 5
2 | Fc1cccn2nc([C@H]3c4nc[nH]c4CCN3c3nnc(-c4cccnc4)o3)cc12 (single isomer, unassigned) | > 5
3 | Cc1cccn2nc([C@H]3c4nc[nH]c4CCN3C(=O)c3nnc(N4CCOCC4)o3)cc12 (single isomer, unassigned) | > 5
4 | N#Cc1ncoc1C(=O)N1CCc2[nH]cnc2[C@@H]1c1nn2ccccc2c1Br (single isomer, unassigned) | 1 to 5
5 | Fc1ccc(-c2nnc(N3CCc4[nH]cnc4[C@@H]3c3cc4ccccn4n3)o2)nc1 (single isomer, unassigned) | > 5
6 | O=C(c1nnc(-c2cc[nH]n2)o1)N1CCc2[nH]cnc2[C@H]1c1cc2ccccn2n1 (single isomer, unassigned) | 1 to 5
7 | Cn1cc(-c2nnc(C(=O)N3CCc4[nH]cnc4C3c3nn4ccccc4c3Br)o2)cn1 (single isomer, unassigned) | 1 to 5
8 | COc1cccn2nc([C@@H]3c4nc[nH]c4CCN3C(=O)c3nnc(-c4ccn(C)n4)o3)cc12 (single isomer, unassigned) | 1 to 5
9 | Cc1nc(-c2ccccn2)oc1C(=O)N1CCc2[nH]cnc2[C@H]1c1cc2ccccn2n1 (single isomer, unassigned) | 1 to 5
10 | Cc1nc(C(C)(C)O)oc1C(=O)N1CCc2[nH]cnc2[C@H]1c1cc2ccccn2n1 (single isomer, unassigned) | 1 to 5
11 | Cc1ncccc1-c1nnc(N2CCc3[nH]cnc3[C@H]2c2cc3c(C4CC4)cccn3n2)o1 (single isomer, unassigned) | 1 to 5
12 | N#Cc1ncoc1C(=O)N1CCc2[nH]cnc2[C@H]1c1nn2ccccc2c1Br (single isomer, unassigned) | 1 to 5
13 | CN(C)Cc1ccc2c(C(=O)N3CCc4[nH]cnc4C3c3cc4ccccn4n3)cnn2c1 (single isomer, unassigned) | 1 to 5
14 | O=C(c1nnc(CCN2CC(F)C2)o1)N1CCc2[nH]cnc2C1c1cc2ccccn2n1 (centres unmarked) [2-[2-(3-fluoroazetidin-1-yl)ethyl]-5-(4-{pyrazolo[1,5-a]pyridin-2-yl}-1H,4H,5H,6H,7H-imidazo[4,5-c]pyridine-5-carbonyl)-1,3,4-oxadiazole] | > 5
15 | O=C(C1CC1(F)F)N1CCc2[nH]cnc2C1c1cc2ccccn2n1 [4S enantiomer of 5-[(1S)-2,2-difluorocyclopropanecarbonyll-4] | 1 to 5
16 | CC(O)c1nnc(C(=O)N2CCc3[nH]cnc3C2c2cc3ccccn3n2)o1 [4S enantiomer of (1R)-1-{5-[4-{pyrazolo[1,5-a]pyridin-2-yl}-] | 1 to 5
17 | Cc1nc(C(C)O)oc1C(=O)N1CCc2[nH]cnc2C1c1cc2ccccn2n1 [4S enantiomer of (1S)-1-14-methyl-5-[4-{pyrazolo[1,5-a]pyrid] | 1 to 5

same assay, conditions: A375 cells expressing human PAH R408W; 24 hrs compound incubation; 13C-Tyrosine by LC-MS; average where tested multiple times; read-out: AC50

Row | AC50 [µM] | Compound
18 | > 5 | Fc1cccc(F)c1-c1nnc(N2CCc3[nH]cnc3[C@@H]2c2cc3ccccn3n2)o1 (single isomer, unassigned) [Example 1842]
19 | 1 to 5 | CC(O)c1nc(Cl)c(C(=O)N2CCc3[nH]cnc3[C@H]2c2cc3ccccn3n2)o1 (single isomer, unassigned) [Example 2376]
20 | 1 to 5 | CC(O)c1nc(Cl)c(C(=O)N2CCc3[nH]cnc3[C@H]2c2cc3ccccn3n2)o1 (single isomer, unassigned) [Example 2377]

same assay, conditions: A375 cells expressing human R408W PAH; 24 hrs compound incubation; 13C-Tyrosine by LC-MS; average where tested multiple times; read-out: AC50

Row | AC50 [µM] | Compound
21 | < 0.5 | Cn1ccc(-c2nnc(C(=O)N3CCc4[nH]cnc4[C@H]3c3cc4c(C(F)(F)F)cccn4n3)o2)n1 (single isomer, unassigned) [Example 836]
22 | < 0.5 | CC(O)c1nc(Br)c(C(=O)N2CCc3[nH]cnc3[C@H]2c2cc3ccccn3n2)o1 (single isomer, unassigned) [Example 996]
23 | < 0.5 | CC(O)c1nc(Br)c(C(=O)N2CCc3[nH]cnc3[C@H]2c2cc3ccccn3n2)o1 (single isomer, unassigned) [Example 997]
